We go through 17 molecules from paper PMC6271602, “PBDE: Structure-Activity Studies for the Inhibition of Hepatitis C Virus NS3 Helicase” (Molecules, 2014).

Data set [1] has as its target HCV NS3 helicase (Hepatitis C virus genotype 1b, UniProt Q9WMX2). It counts as biochemical. The note with it: FRET screening; strongest of 41 extracts.
Data set [2] deals with T1, NS3 ATPase activity (HCV NS3 protein) (Hepatitis C virus genotype 1b, UniProt Q9WMX2). Briefly: Radioisotope labeling ATP hydrolysis (ATPase) assay. The settings on record: for NS3 ATPase inhibition (result in words): structure-activity discussion of Table 2. It counts as biochemical. On the procedure:
(§1) Following our previous report, unless otherwise stated, the standard assay reaction (10 μL) contained the following components: 25 mM MOPS-NaOH (pH 7.0), 1 mM DTT, 5 mM MgCl2, 5 mM CaCl2, 1 mM [γ-^32P] ATP, 300 nM NS3, and 0.1 μg/μL poly(U) with serial dilution of the tested compounds in DMSO. Samples were incubated at 37 °C for 10 min, and the reaction was terminated by adding 15 μL of stop solution (10 mM EDTA). A small portion (2 μL) of reaction mixture was spotted on a PEI-cellulose TLC plate (Merck Millipore, Darmstadt, Germany) and developed by ascending chromatography in 0.75 M LiCl/1 M formic acid solution for 25 min. The TLC plate was then air-dried, and applied to autoradiography measured by an Image Reader FLA-9000 and quantified by Multi Gauge V3.11 software (Fujifilm, Tokyo, Japan). For the bacterial alkaline phosphatase assay, the buffer provided with the kit (Takara Bio, Otsu, Japan) was used, and then subjected to the assay as described above.

In data set [3] the target is T2, bacterial alkaline phosphatase (Escherichia coli, UniProt P00634).
T2 construct: purchased Takara Bio BAPC75
The data set can be described thus: ATPase assay with bacterial alkaline phosphatase (specificity). In kind it is biochemical. The note with it: highest concentration tested, 200 μM. How it is done:
as §1

Data set [4] concerns the target NS3 RNA binding (Hepatitis C virus genotype 1b, UniProt Q9WMX2). The data set can be described thus: Gel mobility shift assay (NS3 binding to ssRNA). On the procedure:
GMSA was performed with slight modification as described previously. In brief, [γ-^32P] ATP-labeled single-stranded RNA (0.4 nM) was incubated in a buffer containing 30 mM Tris-HCl pH 7.5, 100 mM NaCl, 2 mM MgCl2, 1 mM DTT, 20 U of RNasin plus (Promega) in the presence of 300 nM NS3 protein with serial dilution of PBDE in DMSO at room temperature for 15 min in a final reaction volume of 20 μL. The protein-RNA complexes were loaded onto a 6% native-PAGE (acrylamide:bis = 19:1) and after electrophoresis in TBE buffer, the labeled RNA bands were visualized and quantified with an Image Reader FLA-9000 (Fujifilm) and Multi Gauge V3.11 software (Fujifilm), respectively.

The subject of data set [5] is subgenomic replicon RNA of genotype 1b N strain. Briefly: HCV replication assay (subgenomic replicon, luciferase). In kind it is cell-based. The note with it: Hepatitis C virus, genotype 1b strain N replicon, 72 h, read-out: suppression of HCV replication, EC50. On the procedure: The cell lines harboring the subgenomic replicon RNAs of genotype 1b strain N [27] were seeded at 2 × 10^4 cells per well in a 48-well plate 24 h before treatment. The cells were treated with PBDE at various concentrations for 72 h and lysed in cell culture lysis reagent (Promega). A luciferase assay system (Promega) was used to determine the luciferase activity, and the luminescence was measured using Luminescencer-JNR AB-2100 (ATTO, Tokyo, Japan), corresponding to the expression level of the HCV replicon.

Data set [6] can be described thus: Toxicity assay (MTS). It counts as cell-based. The note with it: cell lines harboring the subgenomic replicon RNAs, replicon cells, read-out: cytotoxic effect, CC50. On the procedure: MTS assay was carried out to determine cytotoxicity using a CellTiter 96 aqueous one-solution cell proliferation assay kit (Promega) according to the manufacturer’s instructions.

Data set [7] concerns the target T1, NS3 ATPase activity (HCV NS3 protein). The data set can be described thus: Radioisotope labeling ATP hydrolysis (ATPase) assay. The note with it: PBDE 0.1 mM, NS3 600 nM, 1 mM ATP. It counts as biochemical.
[8] abbreviates: 300 nM NS3, 1 mM [γ-32P] ATP, read-out: NS3 ATPase Inhibition IC50.

Each structure is given as a SMILES string. Like-named read-outs stand apart in the source and are kept apart here. Bounds are passed on as bounds.

T1 sequence (Q9WMX2 1027-1657): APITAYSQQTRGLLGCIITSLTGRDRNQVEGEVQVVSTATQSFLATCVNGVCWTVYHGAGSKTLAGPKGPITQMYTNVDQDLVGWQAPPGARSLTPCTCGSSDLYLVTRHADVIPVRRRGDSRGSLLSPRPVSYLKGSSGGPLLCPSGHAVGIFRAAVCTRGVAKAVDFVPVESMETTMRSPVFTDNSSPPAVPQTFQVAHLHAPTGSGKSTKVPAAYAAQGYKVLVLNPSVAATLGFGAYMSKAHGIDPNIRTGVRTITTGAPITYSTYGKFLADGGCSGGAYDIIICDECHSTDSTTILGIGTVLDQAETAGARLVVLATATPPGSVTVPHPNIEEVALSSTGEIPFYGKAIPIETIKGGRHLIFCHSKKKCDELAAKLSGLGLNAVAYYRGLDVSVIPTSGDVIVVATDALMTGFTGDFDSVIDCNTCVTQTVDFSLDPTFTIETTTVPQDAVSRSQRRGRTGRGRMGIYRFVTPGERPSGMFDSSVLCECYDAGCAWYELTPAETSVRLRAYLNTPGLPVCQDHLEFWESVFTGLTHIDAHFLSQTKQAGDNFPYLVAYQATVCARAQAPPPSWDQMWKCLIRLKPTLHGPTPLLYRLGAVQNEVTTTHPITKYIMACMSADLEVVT
Sequence of HCV NS3 helicase (Q9WMX2 1027-1657): as above
Sequence of NS3 RNA binding (Q9WMX2 1027-1657): as above
T2 sequence (P00634 22-471): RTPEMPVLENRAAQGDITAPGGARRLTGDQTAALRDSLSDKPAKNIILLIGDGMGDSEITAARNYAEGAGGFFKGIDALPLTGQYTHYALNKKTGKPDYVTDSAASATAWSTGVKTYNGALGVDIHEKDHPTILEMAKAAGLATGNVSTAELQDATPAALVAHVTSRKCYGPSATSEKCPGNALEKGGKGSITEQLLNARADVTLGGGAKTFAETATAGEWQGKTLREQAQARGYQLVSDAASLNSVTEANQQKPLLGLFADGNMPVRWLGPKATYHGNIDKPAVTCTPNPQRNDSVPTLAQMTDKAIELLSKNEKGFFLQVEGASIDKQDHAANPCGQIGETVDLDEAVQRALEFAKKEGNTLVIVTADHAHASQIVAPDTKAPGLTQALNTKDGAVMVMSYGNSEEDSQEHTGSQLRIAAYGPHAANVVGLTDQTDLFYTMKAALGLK

As for `Oc1cc(Br)cc(Br)c1Oc1ccc(Br)cc1Br` [Compound 1, 6-hydroxy-2,2',4,4'-tetrabromodiphenyl ether], in data set [1], the “inhibition of NS3 helicase activity” value is on record as 37%. For the same molecule, the IC50 in data set [2] is 80 µM; in data set [4] it was 68 µM. The “inhibition of ATPase activity of bacterial alkaline phosphatase” value in data set [3] is given as “no inhibition”. In addition, the concentration for a half-maximal effect (EC50) in data set [5] came out at 3.3 µM. In data set [6], the CC50 at 72 h was more than 5 µM. Also, the “NS3 ATPase inhibition in presence and absence of poly(U) RNA” value in data set [7] is “significantly active in both the presence and absence of poly(U)”.

`COc1cc(Br)cc(Br)c1Oc1ccc(Br)cc1Br` [Compound 2, PBDE methyl ether]: in data set [2], the IC50 was more than 200 µM and the “NS3 ATPase inhibition (result in words)” value is listed as “complete loss of the inhibitory activity”.

Turning to `Oc1c(Br)cc(Br)cc1-c1cc(Br)cc(Br)c1O` [Compound 3, Bromophene], in data set [2], the IC50 was determined as 94 µM and the “NS3 ATPase inhibition (result in words)” value is “remained at the same level as that of PBDE (1)”.

In the case of `Oc1cc(Cl)ccc1Oc1ccc(Cl)cc1Cl` [Compound 4, triclosan, reference compound], in data set [2], the half-maximal inhibitory concentration (IC50) is 150 µM and the “NS3 ATPase inhibition (result in words)” value is listed as “moderate levels of inhibition”.

With `Oc1c(Br)cc(Br)cc1Br` [Compound 5, 2,4,6-tribromophenol], in data set [2], the half-maximal inhibitory concentration (IC50) is more than 200 µM and the “NS3 ATPase inhibition (result in words)” value is “did not exhibit the inhibitory activity”.

`CC(C)(c1cc(Br)c(O)c(Br)c1)c1cc(Br)c(O)c(Br)c1` [Compound 6, 3,3',5,5'-tetrabromobisphenol A]: in data set [2], the 50% inhibitory concentration (IC50) was found to be 120 µM and the “NS3 ATPase inhibition (result in words)” value was “same level of inhibition as that of bromophene 3”.

For the molecule `Oc1ccccc1-c1ccccc1` [Compound 7, O-hydroxybiphenyl], in data set [2], the IC50 was more than 200 µM and the “NS3 ATPase inhibition (result in words)” value was “loss of the inhibitory activity”.

As for `Oc1ccc2cc(Br)ccc2c1-c1c(O)ccc2cc(Br)ccc12` [Compound 8, (R)-(−)-6,6'-dibromo-1,1'-bi-2-naphthol], the IC50 in data set [2] (setting [8]) was 54 µM. In data set [2], the “NS3 ATPase inhibition (result in words)” value is listed as “most potent activity”.

Take `CC(C)(c1cc(Cl)c(O)c(Cl)c1)c1cc(Cl)c(O)c(Cl)c1` [Compound 9, tetrachlorobisphenol A]: in data set [2], the half-inhibitory concentration (IC50) came out at 94 µM and the “NS3 ATPase inhibition (result in words)” value is “same level of inhibition as that of bromophene 3”.

For the molecule `Oc1ccc2cc(Br)ccc2c1Br` [Compound 10, 1,6-dibromo-2-naphthol], in data set [2], the IC50 is more than 200 µM and the “NS3 ATPase inhibition (result in words)” value is “did not exhibit the inhibitory activity”.

As to `Oc1c(F)c(F)c(-c2c(F)c(F)c(F)c(F)c2F)c(F)c1F` [Compound 11, 2,3,5,6-tetrafluoro-4-(pentafluorophenyl)phenol], in data set [2], the 50% inhibitory concentration (IC50) was more than 200 µM and the “NS3 ATPase inhibition (result in words)” value is “inactive”.

In the case of `Oc1c(Br)cc2ccccc2c1-c1c(O)c(Br)cc2ccccc12` [Compound 12, (R)-(+)-3-3'-dibromo-1,1'-bi-2-naphthol], the IC50 in data set [2] (setting [8]) is more than 200 µM. In data set [2], the “NS3 ATPase inhibition (result in words)” value is recorded as “no activity”.

With `Oc1c(Br)cc2c(c1-c1c(O)c(Br)cc3c1CCCC3)CCCC2` [Compound 13, (R)-(+)-3,3'-dibromo-5,5',6,6',7,7',8,8'-octahydro-1,1'-bi-2,2'-naphthalenediol], in data set [2] (setting [8]), the concentration for half-maximal inhibition (IC50) was more than 200 µM. For the same molecule, the “NS3 ATPase inhibition (result in words)” value in data set [2] is recorded as “no activity”.

Take `CC(C)(c1cc(Br)c(OCCO)c(Br)c1)c1cc(Br)c(OCCO)c(Br)c1` [Compound 14, 4,4'-isopropylidenebis[2-(2,6-dibromophenoxy)ethanol]]: in data set [2], the 50% inhibitory concentration (IC50) was more than 200 µM and the “NS3 ATPase inhibition (result in words)” value was “loss of activity”.

Regarding `Oc1ccc(Cl)cc1-c1cc(Cl)c(Cl)c(Cl)c1Cl` [Compound 15, 2-Hydroxy-2',3',4',5,5'-pentachlorobiphenyl], in data set [2], half-maximal inhibition (IC50) was put at 54 µM and the “NS3 ATPase inhibition (result in words)” value is “most potent inhibitory activity of all the analogs in this study”.

`Oc1c(-c2ccccc2)cc(-c2ccc(Br)cc2)cc1-c1ccccc1` [Compound 16, 4-(4-bromophenyl)-2,6-diphenylphenol]: in data set [2] (setting [8]), the IC50 is more than 200 µM. Besides, in data set [2], the “NS3 ATPase inhibition (result in words)” value was “did not show inhibitory activity”.

As to `Brc1ccc(Oc2ccc(Br)cc2Br)c(Br)c1` [Compound 17, 2,2',4,4'-tetrabromodiphenyl ether], in data set [2], the concentration for half-maximal inhibition (IC50) was more than 200 µM and the “NS3 ATPase inhibition (result in words)” value was “complete loss of the inhibitory activity”.
